Where “and” joins values, the source holds several entries; their conditions need not be identical. Identical values can stand only once. Like-named read-outs stand apart in the source and are kept apart here.
Legend:
[1] = molecular target: T1, 5-HT6 receptor (Homo sapiens, UniProt P50406); test: Radioligand binding assay for 5-HT6 receptor ([3H]-LSD displacement); parameters: expressed in transfected cells; host or cells: HEK-293 (cryopreserved membranes); settings: for Ki: competitive replacement of [3H]-LSD, ±S.E.M.
T1 sequence (P50406 whole entry): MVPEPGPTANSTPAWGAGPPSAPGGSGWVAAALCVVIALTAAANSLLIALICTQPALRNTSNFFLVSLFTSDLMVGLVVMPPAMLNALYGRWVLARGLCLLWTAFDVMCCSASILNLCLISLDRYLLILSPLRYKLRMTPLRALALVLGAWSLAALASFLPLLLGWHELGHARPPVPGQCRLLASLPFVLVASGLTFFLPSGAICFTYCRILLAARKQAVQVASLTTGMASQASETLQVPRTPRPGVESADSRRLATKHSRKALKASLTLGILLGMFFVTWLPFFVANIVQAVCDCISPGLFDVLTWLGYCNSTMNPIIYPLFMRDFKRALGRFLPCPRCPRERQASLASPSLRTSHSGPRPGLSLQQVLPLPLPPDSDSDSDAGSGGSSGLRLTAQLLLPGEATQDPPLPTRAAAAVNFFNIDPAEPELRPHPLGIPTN
Method: To determine the affinity for 5-HT6, the cryopreserved membranes from HEK-293 cells stably transfected with the human recombinant 5-HT6 receptor were used.[40] Preparation of the tested compounds included preparation of stock solutions in DMSO (1 mM) and subsequent serial dilutions (10^–10–10^–5 M) of tested compounds in the appropriate buffer (50 mM Tris buffer, pH 7.4, 10 mM MgCl2, 0.5 mM ethylenediaminetetraacetic acid). The serial dilutions were acquired directly on a 96-well microplate. The reaction mix included 50 μL of appropriate concentration of tested molecule, 50 μL of [^3H]LSD 2.5/2.0 nM, and 150 μL of diluted membranes. The microplate containing the reaction mix was protected with a sealing tape and incubated for 60 min at 37 °C. Quenching of the reaction mixtire included: rapid filtration through UniFilter 96 GF/B filter microplate and rapid washes using 200 μL 50 mM assay buffer and vacuum manifold and 96-well pipettor. The collected microplates were dried overnight at 37 °C. The UniFilter bottoms were sealed, and then 30 μL of Betaplate Scint liquid scintillator (PerkinElmer) was added to each well. […] The obtained data were fit to a one-site curve-fitting equation using Prism 5 software (GraphPad Software), and the Ki values were determined using the Cheng–Prusoff equation. Radioligand binding was performed in duplicates.

[2] = molecular target: muscimol site of the GABA-A receptor; test: Radioligand binding assay for GABA-A receptor ([3H]muscimol displacement, rat brain homogenate); settings: competitive replacement of [3H]muscimol; ±S.E.M.
Method: The study was acquired according to the earlier protocols.[39] The rats’ brains were homogenized and prepared accurately according to the previous protocol.[39] On the day of the study, brain homogenates were thawed at room temperature and “diluted” in 20 volumes of ice-cold 50 mM Tris-HCl buffer (pH 7.4) and centrifuged (20.000g, 30 min, 0–4 °C). The assay was performed directly on 96-well microplates, which contained 50 mM Tris-HCl buffer (pH 7.4) in a total volume of 300 μL. Reaction mix included 240 μL of the brain tissue suspension, 30 μL of [^3H]-muscimol, and 30 μL solution of tested compounds (administrated at various concentrations: 10^–10–10^–5 M). […] The 96-well microplates containing the reaction mix were incubated for 10 min at 0 °C, followed by rapid filtration over glass fiber filters FilterMate B (PerkinElmer, USA) using the Harvester-96 MACH III FM (Tomtec, USA). The filter mats were dried using a microwave and then placed inside a plastic bag (PerkinElmer, USA). After that, they were soaked in 10 mL of Ultima Gold MV liquid scintillation cocktail (PerkinElmer, USA). […] Ki values were estimated according to the Cheng and Prusoff equation. The study was performed in duplicates. The statistical analysis was performed using (GraphPad Prism, version 4.0, San Diego, CA, USA).

[3] = molecular target: T1, 5-HT6 receptor; test: Functional assay for 5-HT6 receptor, antagonist mode (aequorin, CHO-K1 cells); assay type: cell-based; parameters: expressed in transfected cells; host or cells: CHO-K1 (co-expressing mitochondrially targeted aequorin and G protein α16); settings: ±S.E.M., read-out: 5-HT6 R KB
Method: The studies were acquired according to previous protocols.[41] All the examined compounds (novel and the reference) were dissolved in DMSO (1 mM) and diluted accordingly using the assay buffer, directly in 96-well microplate. The recombinant CHO-K1 cells expressing human GPCR, mitochondrially targeted aequorin, and the promiscuous G protein α16 specific for 5-HT6 were used for the functional assay. The cells were thawed and suspended in the appropriate buffer containing DMEM/HAM’s F12 with 0.1% protease free BSA and were then centrifuged. After adding coelenterazine h to a final concentration of 5 μM, the cell pellet was resuspended in the buffer. The cell suspension was incubated at 16 °C for 16 h while being protected from light, gently shaken, and diluted with assay buffer to a concentration of 5000 cells/mL. Following that, 50 μL of the cell suspension was introduced to preloaded white opaque 96-well microplates containing the tested molecules. This was done using the automatic injectors integrated into the radiometric and luminescence plate counter MicroBeta2 LumiJET (PerkinElmer, USA). The light emission resulting from calcium mobilization was monitored for a duration of 60 s. For examination of the antagonistic properties of tested molecule, following 30 min of incubation, the reference agonist was administrated and the light emission was detected.

[4] = tested on: human α1β2γ2-GABA-A receptors; test: Electrophysiological studies, automated patch clamp (QPatch16X), HEK293 cells; assay type: cell-based; settings: agonist mode, compound at 10 μM; current amplitude normalized to 10 μM GABA response; ±S.E.M.
Method: Electrophysiological studies were acquired using the QPatch16X automatic patch clamp platform (Sophion Biosciences) as described before.[42],[43] […] Before the assay, cells were detached from the culture flask by treating them with TrypLE Express solution (Life Technologies) and subsequently suspended in serum-free media. The cells were loaded into a 1.5 mL microtube on the automated electrophysiology instrument, which subsequently performed a spin-down using its built-in centrifuge. Following this, the cells were washed with Ringer’s extracellular solution. The cells were moved to the pipetting wells of a 16-channel planar patch chip plate (QPlate 16X) designed for single-use. A combined suction/voltage protocol was then applied to establish gigaseals. […] During the entire whole-cell recording, the holding potential was maintained at −90 mV. […] The intracellular solution contained 140 mM CsF, 1 mM EGTA, 5 mM CsOH, 10 mM HEPES, 20 mMNaCl (pH 7.2, 320 mOsm). […] The acquired data were examined with QPatch assay software (v5.0, Sophion Biosciences)[44] and are represented as the mean of three separated measurements performed on distinct cells. The efficacy of the tested molecules was determined by calculating the baseline-corrected ratio of the maximum current amplitudes elicited by the tested compounds and the reference agonist (T1-ATG/AG1-ATG or T2-ATG/AG1-ATG). The raw current recordings were standardized and presented as a percentage of the current amplitude evoked by the reference agonist, using the QPatch assay software (v5.0, Sophion Biosciences).

[5] = tested on: female Wistar rats; test: Forced swim test in rats; assay type: in vivo, rat
Method: (§1) Naïve female Wistar rats (weighing 180–200 g) were used in the study. The animals were housed in groups of three to four in standard Makrolon cages (37 cm × 21 cm × 15 cm) under strictly controlled laboratory conditions (ambient temperature 21–24 °C, relative humidity 45–65%) with a 12/12 h light–dark regime (light on at 6:00 a.m. and off at 6:00 p.m.). Animals had unrestricted access to tap water and food (typical pellets). Prior the experiment the animals were randomly appointed to the group. The behavioral studies were accomplished between 8:00 a.m. and 5:00 p.m. with the researcher blind to the study. The experiments were performed according to protocols approved by the Local Ethical Committee in Krakow (Approval Number 147/2018), Poland. Housing and experimental procedures were conducted under the European Union Directive of September 22, 2010 (2010/63/EU) and Polish legislation regarding animal studies. All efforts were made to minimize animal suffering and the number of animals used in the study.
(§2) Vortioxetine (Sigma, Germany) and the tested compounds (16 and 6) were dissolved in 10% cyclodextrin and administered ip 30 min before the test or during 14 consecutive days, with the last injection 60 min before the test. 10% cyclodextrin was administrated to control group.
(§3) A modified forced swim test was carried out according to Detke et al.[50],[51] First, the animals were individually placed inside Plexiglas cylinders, which were 40 cm high and 18 cm in diameter, filled with water at a temperature of 23–25 °C for 15 min. Afterward, the rats were transferred to a Plexiglas box and kept under a 60 W bulb for 30 min to dry. The day after, exactly 24 h later, the rats were once again placed in the cylinder, and their duration of immobility, swimming, and climbing was observed and recorded during a 5 min. The swimming behavior involved energetic movements such as horizontal swimming around the cylinder, while climbing activity referred to upward movements of the forepaws along the swim chamber’s side. Immobility was recorded when the rat only made necessary movements to keep its head above the water. For each test, a fresh water was provided. Open field test in rats: The test was conducted as previously reported by our research group.[52] The test was performed in a darkened room employing the Motor Monitor System (Campden Instruments, Ltd., U.K.). The system was equipped with two SmartFrame Open Field stations, each measuring 40 cm × 40 cm × 38 cm and consisting of 16 × 16 beams. These stations were placed inside sound-attenuating chambers and connected to a PC software using […]. The animals, belonging to either the vehicle-injected or drug-injected group, were individually positioned at the center of the station. The Motor Monitor System, which was automated, recorded the animal’s ambulation in both the X and Y axes, as well as the number of rearing and peeping episodes. Additionally, the total distance traveled by each animal during the 5 min test period was also recorded. Statistical analysis: Results are presented as the mean ± SEM values. They were estimated using one-way analysis of variance (ANOVA), followed by Newman–Keuls post hoc or unpaired two-tailed Student t test. Statistical significance was considered when p < 0.05 for differences between groups.

[6] = tested on: female Wistar rats; test: Open field test in rats (locomotor activity); assay type: in vivo, rat; parameters: total distance traveled: unit not given here; settings: chronic treatment, dose 8, ip 14 days
Method: as §1, §2, §3

[7] = acute, 8 mg/kg ip 30 min before test

Structure (SMILES) | Ki ([1]; 5-HT6R Ki) | Ki ([1]; read-out: 5-HT6R Ki) | Ki [2] | Kb [3] | also measured
O=c1[nH]c2c(N3CCNCC3)cccc2n1Cc1ccccc1 [Compound 2, 1-benzyl-4-(piperazin-1-yl)-1,3-dihydro-2H-benzo[d]imidazol-2-one] | 0.2 ± 0.02 nM |  |  |  | 
O=c1oc2c(N3CCNCC3)cccc2n1Cc1ccccc1 [Compound 3, 3-Benzyl-7-(piperazin-1-yl)benzo[d]oxazol-2(3H)-one] | 4 ± 0.2 nM |  |  |  | 
O=C1COc2c(N3CCNCC3)cccc2N1Cc1ccccc1 [Compound 4, 4-benzyl-8-(piperazin-1-yl)-2H-benzo[b][1,4]oxazin-3(4H)-one] | 1 ± 0.2 nM |  |  |  | 
c1ccc(CN2CCOc3c(N4CCNCC4)cccc32)cc1 [Compound 5, 4-(4-Benzyl-3,4-dihydro-2H-benzo[b][1,4]oxazin-8-yl)piperazin-1-ium Chloride] | 60 ± 7.5 nM |  |  |  | 
O=c1[nH]c2c(N3CCN(CCO)CC3)cccc2n1Cc1ccccc1 [Compound 7, 1-Benzyl-4-(4-(2-hydroxyethyl)piperazin-1-yl)-1,3-dihydro-2H-benzo[d]imidazol-2-one] |  | 40 ± 3 nM |  |  | 
O=c1oc2c(N3CCN(CCO)CC3)cccc2n1Cc1ccccc1 [Compound 8, 3-Benzyl-7-(4-(2-hydroxyethyl)piperazin-1-yl)benzo[d]oxazol-2(3H)-one] |  | 150 ± 7.6 nM |  |  | 
O=C1COc2c(N3CCN(CCO)CC3)cccc2N1Cc1ccccc1 [Compound 9, 4-Benzyl-8-(4-(2-hydroxyethyl)piperazin-1-yl)-2H-benzo[b][1,4]oxazin-3(4H)-one] |  | 4 ± 0.4 nM |  |  | 
OCCN1CCN(c2cccc3c2OCCN3Cc2ccccc2)CC1 [Compound 10, 2-(4-(4-Benzyl-3,4-dihydro-2H-benzo[b][1,4]oxazin-8-yl)piperazin-1-yl)ethan-1-ol] |  | 24 ± 2 nM |  |  | 
NCCCC(=O)OCCN1CCN(c2cccc3c2[nH]c(=O)n3Cc2ccccc2)CC1 [Compound 17, 1-(2-((4-Ammoniobutanoyl)oxy)ethyl)-4-(1-benzyl-2-oxo-2,3-dihydro-1H-benzo[d]imidazol-4-yl)piperazin-1-ium Dichloride] |  | 57 ± 5.9 nM | 592 ± 52.5 nM | 193 ± 3.5 nM | 
Cl.Cl.NCCCC(=O)OCCN1CCN(c2cccc3c2oc(=O)n3Cc2ccccc2)CC1 [Compound 18, 1-(2-((4-Ammoniobutanoyl)oxy)ethyl)-4-(3-benzyl-2-oxo-2,3-dihydrobenzo[d]oxazol-7-yl)piperazin-1-ium Dichloride] |  | 130 ± 12 nM | 229 ± 28 nM | 245 ± 0.7 nM | [%] of 10 μM GABA activity [4]: 14.0% and 14.0 ± 2.6%
Cl.Cl.NCCCC(=O)OCCN1CCN(c2cccc3c2OCC(=O)N3Cc2ccccc2)CC1 [Compound 19, 1-(2-((4-Ammoniobutanoyl)oxy)ethyl)-4-(4-benzyl-3-oxo-3,4-dihydro-2H-benzo[b][1,4]oxazin-8-yl)piperazin-1-ium Dichloride] |  | 25 ± 1 nM | 247 ± 24.7 nM | 7 ± 0.1 nM | [%] of 10 μM GABA activity [4]: 9.5% and 9.5 ± 3.5%; fold higher 5-HT6 affinity compared to 18 ([1]; ratio of Ki values): 5 fold
NCCCC(=O)OCCN1CCN(c2cccc3c2OCCN3Cc2ccccc2)CC1 [Compound 20, 1-(2-((4-Ammoniobutanoyl)oxy)ethyl)-4-(4-benzyl-3,4-dihydro-2H-benzo[b][1,4]oxazin-8-yl)piperazin-1-ium Dichloride] |  | 1260 ± 82 nM | 184 ± 4 nM | 1670 ± 1 nM | 
Cc1ccc(Sc2ccccc2N2CCNCC2)c(C)c1 [vortioxetine, Vortioxetine, reference compound] |  |  |  |  | climbing [5, 7]: had no impact; prolongation of swimming time [5, 7]: 88.1%; reduction of immobility time [5, 7]: 24.7%; decrease of immobility time vs vehicle-treated group ([5]; subchronic, 8 mg/kg ip for 14 days, test 60 min after last injection): 19.5%; X ambulation [6]: 260.1; Y ambulation [6]: 265.9; rearing [6]: 50.6; total distance traveled [6]: 2753

Source: article PMC10119930, “Dual Molecules Targeting 5-HT6 and GABA-A Receptors as a New Approach to Combat Depression Associated with Neuroinflammation” (ACS Chemical Neuroscience, 2023)
